Assays:
duck salad = assay: Test C flooded paddy test; format: in vivo, Heteranthera limosa; conditions: Flood
Method in brief: (§1)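 Visual injury ratings against untreated controls, taken 13 to 15 days after compound was added to paddy water standing 3 cm above the soil.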

corn = assay: Test A pre-/postemergence greenhouse test; format: in vivo, Zea mays; conditions: for Plant response rating, Corn: 0 to 100 scale where 0 is no effect and 100 is complete control; for Corn plant response rating: 0 to 100 scale
Method in brief: (§2)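 Sowing in loam/sand; same-day pre (directed soil spray) and post (foliar, 1–2 leaf, 2–10 cm) treatment with surfactant-containing non-phytotoxic solvent formulation; ~10 days in greenhouse; eye-scored injury against untreated plants.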

barnyardgrass [1] = assay: Test A pre-/postemergence greenhouse test; format: in vivo, Echinochloa crus-galli; conditions: for Plant response rating, Barnyardgrass: 0 to 100 scale where 0 is no effect and 100 is complete control; for Barnyardgrass plant response rating: 0 to 100 scale
Method in brief: as §2

morningglory = assay: Test A pre-/postemergence greenhouse test; format: in vivo, Ipomoea spp.; conditions: for Plant response rating, Morningglory: 0 to 100 scale where 0 is no effect and 100 is complete control; for Morningglory plant response rating: 0 to 100 scale
Method in brief: as §2

barnyardgrass [2] = assay: Test C flooded paddy test; format: in vivo, Echinochloa crus-galli; conditions: Flood
Method in brief: as §1

crabgrass = assay: Test A pre-/postemergence greenhouse test; format: in vivo, Digitaria sanguinalis; conditions: for Plant response rating, Crabgrass, Large: 0 to 100 scale where 0 is no effect and 100 is complete control; for Crabgrass, Large plant response rating: 0 to 100 scale
Method in brief: as §2

giant foxtail = assay: Test A pre-/postemergence greenhouse test; format: in vivo, Setaria faberi; conditions: for Plant response rating, Foxtail, Giant: 0 to 100 scale where 0 is no effect and 100 is complete control; for Foxtail, Giant plant response rating: 0 to 100 scale
Method in brief: as §2

umbrella sedge = assay: Test C flooded paddy test; format: in vivo, Cyperus difformis; conditions: Flood
Method in brief: as §1

velvetleaf = assay: Test A pre-/postemergence greenhouse test; format: in vivo, Abutilon theophrasti; conditions: for Plant response rating, Velvetleaf: 0 to 100 scale where 0 is no effect and 100 is complete control; for Velvetleaf plant response rating: 0 to 100 scale
Method in brief: as §2

rice = assay: Test C flooded paddy test; format: in vivo, Oryza sativa; conditions: Flood
Method in brief: as §1

redroot pigweed = assay: Test A pre-/postemergence greenhouse test; format: in vivo, Amaranthus retroflexus; conditions: for Plant response rating, Pigweed: 0 to 100 scale where 0 is no effect and 100 is complete control; for Pigweed plant response rating: 0 to 100 scale
Method in brief: as §2

wheat = assay: Test A pre-/postemergence greenhouse test; format: in vivo, Triticum aestivum; conditions: for Plant response rating, Wheat: 0 to 100 scale where 0 is no effect and 100 is complete control; for Wheat plant response rating: 0 to 100 scale
Method in brief: as §2

[3] = 31 g ai/ha, scale 0 to 100 (0 no effect, 100 complete control)
[4] = 62 g ai/ha, scale 0 to 100 (0 no effect, 100 complete control)
[5] = 125 g ai/ha, scale 0 to 100, 0 no effect, 100 complete control, 13 to 15 days
[6] = 250 g ai/ha, scale 0 to 100, 0 no effect, 100 complete control, 13 to 15 days
[7] = Postemergence, 500 g ai/ha, 0 is no effect, 100 is complete control
[8] = Preemergence, 125 g ai/ha, 0 no effect, 100 complete control
[9] = Preemergence, 500 g ai/ha, 0 no effect, 100 complete control
[10] = 62 g ai/ha, scale 0 to 100, 0 no effect, 100 complete control, 13 to 15 days

CCOc1ccc(S(=O)(=O)Cc2c(C(F)(F)F)nn(C)c2OC(F)F)[n+]([O-])c1 [Compound 105]
Plant response rating, Ducksalad (duck salad; [3]): 0 | Plant response rating, Ducksalad (duck salad; [4]): 0 | Plant response rating, Ducksalad (duck salad; [5]): 0 | Plant response rating, Ducksalad (duck salad; [6]): 0 | Plant response rating, Corn (corn; Postemergence, 125 g ai/ha): 0 | Corn plant response rating (corn; [7]): 0 | Corn plant response rating (corn; [8]): 0 | Corn plant response rating (corn; [9]): 0 | Plant response rating, Barnyardgrass (barnyardgrass [1]; Postemergence, 125 g ai/ha): 10 | Barnyardgrass plant response rating (barnyardgrass [1]; [7]): 60 | Barnyardgrass plant response rating (barnyardgrass [1]; [8]): 10 | Barnyardgrass plant response rating (barnyardgrass [1]; [9]): 30 | Plant response rating, Morningglory (morningglory; Postemergence, 125 g ai/ha): 0 | Morningglory plant response rating (morningglory; [7]): 30 | Morningglory plant response rating (morningglory; [8]): 10 | Morningglory plant response rating (morningglory; [9]): 40 | Plant response rating, Barnyardgrass (barnyardgrass [2]; [3]): 0 | Plant response rating, Barnyardgrass (barnyardgrass [2]; [4]): 0 | Plant response rating, Barnyardgrass (barnyardgrass [2]; [5]): 0 | Plant response rating, Barnyardgrass (barnyardgrass [2]; [6]): 0 | Plant response rating, Crabgrass, Large (crabgrass; Postemergence, 125 g ai/ha): 10 | Crabgrass, Large plant response rating (crabgrass; [7]): 70 | Crabgrass, Large plant response rating (crabgrass; [8]): 40 | Crabgrass, Large plant response rating (crabgrass; [9]): 70 | Plant response rating, Foxtail, Giant (giant foxtail; Postemergence, 125 g ai/ha): 10 | Foxtail, Giant plant response rating (giant foxtail; [7]): 60 | Foxtail, Giant plant response rating (giant foxtail; [8]): 40 | Foxtail, Giant plant response rating (giant foxtail; [9]): 50 | Plant response rating, Sedge, Umbrella (umbrella sedge; [3]): 0 | Plant response rating, Sedge, Umbrella (umbrella sedge; [4]): 0 | Plant response rating, Sedge, Umbrella (umbrella sedge; [5]): 0 | Plant response rating, Sedge, Umbrella (umbrella sedge; [6]): 0 | Plant response rating, Velvetleaf (velvetleaf; Postemergence, 125 g ai/ha): 0 | Velvetleaf plant response rating (velvetleaf; [7]): 0 | Velvetleaf plant response rating (velvetleaf; [8]): 0 | Velvetleaf plant response rating (velvetleaf; [9]): 0 | Plant response rating, Rice (rice; [3]): 0 | Plant response rating, Rice (rice; [4]): 0 | Plant response rating, Rice (rice; [5]): 0 | Plant response rating, Rice (rice; [6]): 0 | Plant response rating, Pigweed (redroot pigweed; Postemergence, 125 g ai/ha): 0 | Pigweed plant response rating (redroot pigweed; [7]): 0 | Pigweed plant response rating (redroot pigweed; [8]): 0 | Pigweed plant response rating (redroot pigweed; [9]): 0 | Plant response rating, Wheat (wheat; Postemergence, 125 g ai/ha): 0 | Wheat plant response rating (wheat; [7]): 0 | Wheat plant response rating (wheat; [8]): 0 | Wheat plant response rating (wheat; [9]): 0

Cn1nc(C(F)(F)F)c(CS(=O)(=O)c2cc(C(C)(C)C)cc[n+]2[O-])c1OCC(F)(F)F [Compound 72]
Plant response rating, Ducksalad (duck salad; [4]): 0 | Plant response rating, Ducksalad (duck salad; [6]): 75 | Plant response rating, Corn (corn; Postemergence, 125 g ai/ha): 0 | Corn plant response rating (corn; [7]): 0 | Corn plant response rating (corn; [8]): 0 | Plant response rating, Corn (corn; Preemergence, 500 g ai/ha): 50 | Plant response rating, Barnyardgrass (barnyardgrass [1]; Postemergence, 125 g ai/ha): 0 | Barnyardgrass plant response rating (barnyardgrass [1]; [7]): 60 | Barnyardgrass plant response rating (barnyardgrass [1]; [8]): 40 | Plant response rating, Barnyardgrass (barnyardgrass [1]; Preemergence, 500 g ai/ha): 100 | Plant response rating, Morningglory (morningglory; Postemergence, 125 g ai/ha): 0 | Morningglory plant response rating (morningglory; [7]): 40 | Morningglory plant response rating (morningglory; [8]): 0 | Plant response rating, Morningglory (morningglory; Preemergence, 500 g ai/ha): 60 | Plant response rating, Barnyardgrass (barnyardgrass [2]; [4]): 0 | Plant response rating, Barnyardgrass (barnyardgrass [2]; [6]): 0 | Plant response rating, Crabgrass, Large (crabgrass; Postemergence, 125 g ai/ha): 0 | Crabgrass, Large plant response rating (crabgrass; [7]): 60 | Crabgrass, Large plant response rating (crabgrass; [8]): 80 | Plant response rating, Crabgrass, Large (crabgrass; Preemergence, 500 g ai/ha): 100 | Plant response rating, Foxtail, Giant (giant foxtail; Postemergence, 125 g ai/ha): 10 | Foxtail, Giant plant response rating (giant foxtail; [7]): 60 | Foxtail, Giant plant response rating (giant foxtail; [8]): 100 | Plant response rating, Foxtail, Giant (giant foxtail; Preemergence, 500 g ai/ha): 100 | Plant response rating, Sedge, Umbrella (umbrella sedge; [4]): 0 | Plant response rating, Sedge, Umbrella (umbrella sedge; [6]): 70 | Plant response rating, Velvetleaf (velvetleaf; Postemergence, 125 g ai/ha): 0 | Velvetleaf plant response rating (velvetleaf; [7]): 40 | Velvetleaf plant response rating (velvetleaf; [8]): 0 | Plant response rating, Velvetleaf (velvetleaf; Preemergence, 500 g ai/ha): 90 | Plant response rating, Rice (rice; [4]): 0 | Plant response rating, Rice (rice; [6]): 0 | Plant response rating, Pigweed (redroot pigweed; Postemergence, 125 g ai/ha): 20 | Pigweed plant response rating (redroot pigweed; [7]): 60 | Pigweed plant response rating (redroot pigweed; [8]): 60 | Plant response rating, Pigweed (redroot pigweed; Preemergence, 500 g ai/ha): 90 | Plant response rating, Wheat (wheat; Postemergence, 125 g ai/ha): 0 | Wheat plant response rating (wheat; [7]): 60 | Wheat plant response rating (wheat; [8]): 30 | Plant response rating, Wheat (wheat; Preemergence, 500 g ai/ha): 70

Cn1nc(C(F)(F)F)c(C[S+]([O-])c2c(F)ccc[n+]2[O-])c1Cl (centres unmarked) [Compound 52]
Plant response rating, Ducksalad (duck salad; [3]): 0 | Plant response rating, Ducksalad (duck salad; [10]): 0 | Plant response rating, Ducksalad (duck salad; [5]): 40 | Plant response rating, Ducksalad (duck salad; [6]): 60 | Plant response rating, Corn (corn; Postemergence, 125 g ai/ha): 0 | Corn plant response rating (corn; [7]): 30 | Corn plant response rating (corn; [8]): 0 | Plant response rating, Corn (corn; Preemergence, 500 g ai/ha): 0 | Plant response rating, Barnyardgrass (barnyardgrass [1]; Postemergence, 125 g ai/ha): 40 | Barnyardgrass plant response rating (barnyardgrass [1]; [7]): 70 | Barnyardgrass plant response rating (barnyardgrass [1]; [8]): 10 | Plant response rating, Barnyardgrass (barnyardgrass [1]; Preemergence, 500 g ai/ha): 80 | Plant response rating, Morningglory (morningglory; Postemergence, 125 g ai/ha): 0 | Morningglory plant response rating (morningglory; [7]): 20 | Morningglory plant response rating (morningglory; [8]): 0 | Plant response rating, Morningglory (morningglory; Preemergence, 500 g ai/ha): 40 | Plant response rating, Barnyardgrass (barnyardgrass [2]; [3]): 0 | Plant response rating, Barnyardgrass (barnyardgrass [2]; [10]): 0 | Plant response rating, Barnyardgrass (barnyardgrass [2]; [5]): 0 | Plant response rating, Barnyardgrass (barnyardgrass [2]; [6]): 0 | Plant response rating, Crabgrass, Large (crabgrass; Postemergence, 125 g ai/ha): 30 | Crabgrass, Large plant response rating (crabgrass; [7]): 40 | Crabgrass, Large plant response rating (crabgrass; [8]): 0 | Plant response rating, Crabgrass, Large (crabgrass; Preemergence, 500 g ai/ha): 40 | Plant response rating, Foxtail, Giant (giant foxtail; Postemergence, 125 g ai/ha): 40 | Foxtail, Giant plant response rating (giant foxtail; [7]): 60 | Foxtail, Giant plant response rating (giant foxtail; [8]): 30 | Plant response rating, Foxtail, Giant (giant foxtail; Preemergence, 500 g ai/ha): 90 | Plant response rating, Sedge, Umbrella (umbrella sedge; [3]): 0 | Plant response rating, Sedge, Umbrella (umbrella sedge; [5]): 40 | Plant response rating, Sedge, Umbrella (umbrella sedge; [6]): 85 | Plant response rating, Velvetleaf (velvetleaf; Postemergence, 125 g ai/ha): 50 | Velvetleaf plant response rating (velvetleaf; [7]): 60 | Velvetleaf plant response rating (velvetleaf; [8]): 0 | Plant response rating, Velvetleaf (velvetleaf; Preemergence, 500 g ai/ha): 0 | Plant response rating, Rice (rice; [3]): 0 | Plant response rating, Rice (rice; [10]): 0 | Plant response rating, Rice (rice; [5]): 0 | Plant response rating, Rice (rice; [6]): 0 | Plant response rating, Pigweed (redroot pigweed; Postemergence, 125 g ai/ha): 40 | Pigweed plant response rating (redroot pigweed; [7]): 70 | Plant response rating, Pigweed (redroot pigweed; Preemergence, 500 g ai/ha): 100 | Plant response rating, Wheat (wheat; Postemergence, 125 g ai/ha): 0 | Wheat plant response rating (wheat; [7]): 50 | Wheat plant response rating (wheat; [8]): 0 | Plant response rating, Wheat (wheat; Preemergence, 500 g ai/ha): 0

— patent US20100298141A1, “SUBSTITUTED PYRIDINE N-OXIDE HERBICIDES” (E. I. DU PONT DE NEMOURS AND COMPANY, priority 2007, published 2010)
